The values below are quoted from earlier work in patent US12171869B2, “Intracameral drug delivery depots” (Incept, LLC., priority 2016, dated 2024).

SMILES strings stand for the structures. Several values for one entry are separate records, joined by “and”; a condition that tells them apart may be missing. Identical values can stand only once.

The conditions of series [1]: intracameral administration, clinical studies (Charters 2016); 10 μg dose.
For series [2] the following is noted: eye drop studies in humans (Faulkner et al., 2010; Martinez-de-la-Casa et al., 2012).
The next series deals with beagle. The conditions noted are these: 0.004% once a day, normal healthy beagles, 5 treatment days (Carvalho et al., 2006).

In the case of `CCNC(=O)CCC/C=C\C[C@@H]1[C@@H](/C=C/[C@@H](O)CCc2ccccc2)[C@H](O)C[C@@H]1O` [bimatoprost], the “duration of IOP reduction” value in series [1] is listed as “up to 4 months”.

Regarding `O=C(O)CCC/C=C\C[C@@H]1[C@@H](/C=C/[C@@H](O)COc2cccc(C(F)(F)F)c2)[C@H](O)C[C@@H]1O` [travoprost free acid], the “travoprost free acid Cmax” value in series [2] was ~2 ng/mL and ~3 ng/mL.

Consider `CC(C)OC(=O)CCC/C=C\C[C@@H]1[C@@H](/C=C/[C@@H](O)COc2cccc(C(F)(F)F)c2)[C@H](O)C[C@@H]1O` [travoprost, isopropyl (Z)-7-[(1R,2R,3R,5 S)-3,5-dihydroxy-2-[(1E,3R)-3-hydroxy-4-[(α,α,α-trifluoro-m-tolyl)oxy]-1-butenyl]cyclopentyl]-5-heptenoate], for which the hyperemia entry with beagle was “hyperemia for the entire treatment period”.
